Data as given in patent publication US20250114486A1, “MARKED FATTY ACID DERIVATIVE, PRECURSOR COMPOUND THEREOF, AND USE THEREOF IN CONTRAST AGENT” (BEIJING NORMAL UNIVERSITY, priority 2022, published 2025).
Values joined by “and” are separate entries in the source; they are usually repeats but may differ in a detail not shown here. Identical values can stand only once.

How the values were obtained:
[1] = In vivo biodistribution of radioactive ^99mTc complexes in female SD rats; parameters: species or system female Sprague-Dawley (SD) rats; settings: for Biodistribution: Large Intestine / Biodistribution: Small Intestine / Biodistribution: Stomach: unit % ID
Protocol: (§1) Female SD rats (180-220 g, n=3) were fasted for 12 h before the experiment, and the purified radioactive 99mTc complexes 78-81 were prepared into physiological saline (containing 10% ethanol) solutions of about 250-350 μCi/mL. 200 μL of the above solution was injected into the tail vein of female SD rats, and the rats were killed by cervical dislocation at five time points, 15, 30, 60, 120 and 240 min after the tail vein injection. The blood, brain, heart, liver, spleen, lung, kidney, muscle, bone, large intestine, small intestine, stomach and tail were collected, weighed and counted, and the count distribution of each tissue and organ was calculated (unit: % ID/g, the unit of large intestine, small intestine and stomach is % ID), and the data are the mean±standard deviation of three mice in each phase. At the same time, 200 μL of the above solution was diluted to 20 mL, which was used as the % ID without deducting the tail count.

[2] = Metabolism study in female SD rats (modified Folch extraction, ^99mTc gamma counting); type: in vivo
Protocol: Female SD rats (180-220 g, fasted overnight) were injected with […] radioactive ^99mTc complex 80 (200-300 μCi, dissolved in 10% EtOH saline, 1000 μL) (n=3) through the tail vein. Heart, intestine and liver samples were collected at 60 min and 120 min after injection. Among them, the SD rats killed at 60 min post-injection were divided into two groups: one group of fasting female SD rats were injected with saline (0.2 mL) solution containing fatty acid β-oxidation inhibitor TMZ (40 mg/kg) and our radiotracer (TMZ-administratied group), and the other group of fasting female SD rats were injected with radioactive ^99mTc complex 80 only (control group). Heart, intestine or liver samples were homogenized in a mixture of CHCl3—CH3OH in a volume ratio of 2:1, then 40% urea and 5% sulfuric acid aqueous solution were added, and they were sonicated and centrifuged at 2000 rpm for 10 min (a modified Folch extraction method). The ^99mTc gamma counting were performed on the resulting aqueous phase, organic phase and residual tissue particle phase (n=3).
In addition, the residual tissue particles obtained from the heart samples were measured for radioactivity counts, then heated and dissolved in 1 mol/L NaOH solution at 90° C. for 1 h, cooled, and then treated with 50% trichloroacetic acid (TCA). After centrifugation at 2000 rpm for 10 min, the obtained supernatant and precipitate were ^99mTc gamma counting.

fatty acid β-oxidation = assay: TMZ (trimetazidine hydrochloride) blocking experiment, biodistribution in female SD rats; type: in vivo
Protocol: as §1
Trimetazidine hydrochloride (TMZ) is a widely used anti-anginal drug and an inhibitor of fatty acid β-oxidation. […] Therefore, in order to investigate the sensitivity of radioactive ^99mTc complex 80 to fatty acid β-oxidation, we first performed a TMZ blocking experiment from the perspective of biodistribution. Among them, SD rats killed 60 min after injection were divided into two groups: one group of fasting female SD rats were injected with saline (0.2 mL) solution containing TMZ (40 mg/kg) and our radiotracer ^99mTc complex 80 (TMZ administration group), and the other group of fasting female SD rats were injected with radioactive ^99mTc complex 80 only (control group). The absolute myocardial uptake of the control SD rats and the TMZ-administered SD rats was compared 60 min after the tail vein injection of our radiotracer 80 (corresponding to the time point of the peak absolute myocardial uptake). […] The effect of TMZ administration on the metabolic fate of the radioactive ^99mTc complex 80 will also be discussed in Example 4 below.

[3] = heart in TMZ-administrated SD rats (TMZ 40 mg/kg), 60 min
[4] = heart in control SD rats, 60 min, percentage of total ^99mTc radioactivity counts
[5] = heart in control SD rats, 120 min
[6] = intestine in control SD rats, 60 min
[7] = intestine in control SD rats, 120 min
[8] = liver in control SD rats, 60 min
[9] = liver in control SD rats, 120 min
[10] = female SD rats, 60 min, blocked by trimetazidine hydrochloride (TMZ 40 mg/kg)
[11] = female SD rats, 60 min, blocked by trimetazidine hydrochloride (TMZ 40 mg/kg), unit % ID

COC(C)(C)C[N+]#[C][99Tc-5]([C]#[N+]CC(C)(C)OC)([C]#[N+]CC(C)(C)OC)([C]#[N+]CC(C)(C)OC)([C]#[N+]CC(C)(C)OC)[C]#[N+]CC(C)(C)OCCCCCSCCCCC(=O)O [^99mTc complex 80]
Biodistribution: Large Intestine ([1]; 120 min post-injection): 22.13 ± 2.94 % ID | Biodistribution: Small Intestine ([1]; 120 min post-injection): 5.02 ± 0.82 % ID | Biodistribution: Stomach ([1]; 120 min post-injection): 0.55 ± 0.08 % ID | Biodistribution: Blood ([1]; 240 min post-injection): 0.007 ± 0.001 ID %/g | Biodistribution: Bone ([1]; 240 min post-injection): 0.043 ± 0.003 ID %/g | Biodistribution: Brain ([1]; 240 min post-injection): 0.007 ± 0.002 ID %/g | Biodistribution: Heart ([1]; 240 min post-injection): 0.93 ± 0.09 ID %/g | Biodistribution: Kidney ([1]; 240 min post-injection): 0.49 ± 0.03 ID %/g | Biodistribution: Liver ([1]; 240 min post-injection): 0.17 ± 0.03 ID %/g | Biodistribution: Lungs ([1]; 240 min post-injection): 0.06 ± 0.01 ID %/g | Biodistribution: Muscle ([1]; 240 min post-injection): 0.22 ± 0.02 ID %/g | Biodistribution: Spleen ([1]; 240 min post-injection): 0.06 ± 0.01 ID %/g | Heart-to-Blood ratio ([1]; 240 min post-injection): 141.90±22.86 | Heart-to-Liver ratio ([1]; 240 min post-injection): 5.56±1.30 | Heart-to-Lungs ratio ([1]; 240 min post-injection): 15.00±3.18 | absolute myocardial uptake value ([1]; 240 min post-injection): 0.93±0.09 % ID/g | Biodistribution: Large Intestine ([1]; 240 min post-injection): 22.41 ± 1.13 % ID | Biodistribution: Small Intestine ([1]; 240 min post-injection): 7.36 ± 0.64 % ID | Biodistribution: Stomach ([1]; 240 min post-injection): 0.20 ± 0.02 % ID | absolute myocardial uptake peak value ([1]; peak at 60 min post-injection): 2.06±0.06 % ID/g | decrease of absolute myocardial uptake value ([1]; within 60-240 min post-injection): 54.9% | reduction of residual tissue granular phase proportion, TMZ-treated vs control heart samples ([2]; 60 min after injection, P<0.01): 61% | precipitated ^99mTc radioactivity count as share of residual tissue granular phase ([2]; control SD rat heart, 60 min, dissolved in 1 mol/L NaOH 90° C. 1 h, 50% trichloroacetic acid added): 86.0% | % aqueous fraction [2, 3]: 0.29 ± 0.06% | % organic fraction [2, 3]: 73.11±2.03% | % residual tissue pellet [2, 3]: 26.60±2.09% | % aqueous fraction [2, 4]: 0.50 ± 0.21% | % organic fraction [2, 4]: 31.38±2.48% | % residual tissue pellet [2, 4]: 68.54±3.66% and 68.12 ± 2.69% | % aqueous fraction [2, 5]: 0.53 ± 0.23% | % organic fraction [2, 5]: 33.20 ± 4.56% | % residual tissue pellet [2, 5]: 66.27±34.54% and 66.27 ± 4.54% | % aqueous fraction [2, 6]: 0.54 ± 0.24% | % organic fraction [2, 6]: 38.76 ± 5.69% | % residual tissue pellet [2, 6]: 60.70±5.71% | % aqueous fraction [2, 7]: 1.68 ± 0.44% | % organic fraction [2, 7]: 32.77 ± 3.98% | % residual tissue pellet [2, 7]: 65.55±3.54% | % aqueous fraction [2, 8]: 0.66 ± 0.21% | % organic fraction [2, 8]: 35.30 ± 4.75% | % residual tissue pellet [2, 8]: 64.04±4.90% | % aqueous fraction [2, 9]: 0.85 ± 0.30% | % organic fraction [2, 9]: 31.92 ± 3.83% | % residual tissue pellet [2, 9]: 67.23 ± 4.08% | decrease of absolute myocardial uptake, TMZ-administered vs control SD rats (fatty acid β-oxidation; 60 min post-injection, TMZ 40 mg/kg, P<0.01): 51% | sensitivity to myocardial fatty acid β-oxidation (fatty acid β-oxidation; TMZ blocking, female SD rats): quite sensitive | Biodistribution: Blood (fatty acid β-oxidation; [10]): 0.024 ± 0.003 ID %/g | Biodistribution: Bone (fatty acid β-oxidation; [10]): 0.07 ± 0.01 ID %/g | Biodistribution: Brain (fatty acid β-oxidation; [10]): 0.009 ± 0.005 ID %/g | Biodistribution: Heart (fatty acid β-oxidation; [10]): 1.01 ± 0.19 ID %/g | Biodistribution: Kidney (fatty acid β-oxidation; [10]): 0.97 ± 0.28 ID %/g | Biodistribution: Liver (fatty acid β-oxidation; [10]): 0.51 ± 0.16 ID %/g | Biodistribution: Lungs (fatty acid β-oxidation; [10]): 0.16 ± 0.02 ID %/g | Biodistribution: Muscle (fatty acid β-oxidation; [10]): 0.31 ± 0.06 ID %/g | Biodistribution: Spleen (fatty acid β-oxidation; [10]): 0.10 ± 0.04 ID %/g | Heart-to-Blood ratio (fatty acid β-oxidation; [10]): 41.25 ± 3.12 | Heart-to-Liver ratio (fatty acid β-oxidation; [10]): 2.06 ± 0.41 | Heart-to-Lungs ratio (fatty acid β-oxidation; [10]): 6.28 ± 0.29 | Biodistribution: Large Intestine (fatty acid β-oxidation; [11]): 15.54 ± 6.05 % ID | Biodistribution: Small Intestine (fatty acid β-oxidation; [11]): 16.59 ± 4.32 % ID | Biodistribution: Stomach (fatty acid β-oxidation; [11]): 1.10 ± 0.19 % ID
